The target in one experiment is Human plasma kallikrein (Homo sapiens (Human), UniProt P03952). The experiment can be described thus: Determination of the IC50 for plasma kallikrein. The settings on record: 37° C., fluorogenic substrate H-DPro-Phe-Arg-AFC; read-out: IC50 (human PKal). It is filed as biochemical. How it is done: Determination of the IC50 for plasma kallikrein
Plasma kallikrein inhibitory activity in vitro was determined using standard published methods (see e.g. Johansen et al., Int. J. Tiss. Reac. 1986, 8, 185; Shori et al., Biochem. Pharmacol., 1992, 43, 1209; Stürzebecher et al., Biol. Chem. Hoppe-Seyler, 1992, 373, 1025). Human plasma kallikrein (Protogen) was incubated at 37° C. with the fluorogenic substrate H-DPro-Phe-Arg-AFC and various concentrations of the test compound. Residual enzyme activity (initial rate of reaction) was determined by measuring the change in […] at 410 nm and the IC50 value for the test compound was determined.

Another experiment concerns the target Human KLK1 (Homo sapiens (Human), UniProt P06870). The experiment can be described thus: Determination of the IC50 for KLK1. The settings on record: 37° C., fluorogenic substrate H-DVal-Leu-Arg-AFC. It counts as biochemical. How it is done: Determination of the IC50 for KLK1
KLK1 inhibitory activity in vitro was determined using standard published methods (see e.g. Johansen et al., Int. J. Tiss. Reac. 1986, 8, 185; Shori et al., Biochem. Pharmacol., 1992, 43, 1209; Stürzebecher et al., Biol. Chem. Hoppe-Seyler, 1992, 373, 1025). Human KLK1 (Callbiochem) was incubated at 37° C. with the fluorogenic substrate H-DVal-Leu-Arg-AFC and various concentrations of the test compound. Residual enzyme activity (initial rate of reaction) was determined by measuring the change in optical absorbance at 410 nm and the IC50 value for the test compound was determined.

Sequence of Human plasma kallikrein (P03952 391-638): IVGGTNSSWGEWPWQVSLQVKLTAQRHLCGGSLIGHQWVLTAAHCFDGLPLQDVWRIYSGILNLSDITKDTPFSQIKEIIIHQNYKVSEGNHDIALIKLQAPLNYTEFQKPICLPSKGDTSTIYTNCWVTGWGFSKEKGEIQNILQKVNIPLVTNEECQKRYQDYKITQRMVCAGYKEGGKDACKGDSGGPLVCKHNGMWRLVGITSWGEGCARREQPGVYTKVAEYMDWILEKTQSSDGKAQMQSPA
Sequence of Human plasma kallikrein (P03952 20-390 partner): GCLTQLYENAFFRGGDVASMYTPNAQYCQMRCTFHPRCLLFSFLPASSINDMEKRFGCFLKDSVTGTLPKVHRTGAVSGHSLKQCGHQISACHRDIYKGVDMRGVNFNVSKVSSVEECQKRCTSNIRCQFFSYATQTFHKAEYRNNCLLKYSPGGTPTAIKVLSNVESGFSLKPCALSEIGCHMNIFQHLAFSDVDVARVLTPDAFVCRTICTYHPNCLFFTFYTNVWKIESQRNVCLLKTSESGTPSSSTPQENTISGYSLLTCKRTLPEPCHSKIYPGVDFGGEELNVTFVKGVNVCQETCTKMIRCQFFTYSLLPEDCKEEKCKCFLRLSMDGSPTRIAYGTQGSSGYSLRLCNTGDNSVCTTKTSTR
Sequence of Human KLK1 (P06870 25-262): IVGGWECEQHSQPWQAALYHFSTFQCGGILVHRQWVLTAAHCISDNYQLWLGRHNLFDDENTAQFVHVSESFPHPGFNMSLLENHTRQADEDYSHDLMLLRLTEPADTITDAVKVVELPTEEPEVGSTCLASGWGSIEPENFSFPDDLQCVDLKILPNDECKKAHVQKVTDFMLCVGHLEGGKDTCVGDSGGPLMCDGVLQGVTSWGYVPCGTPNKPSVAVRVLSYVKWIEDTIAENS

For `Cc1cnn(Cc2ccc(Cc3cncc(C(=O)NCc4ccc5c(N)nccc5c4)c3)cc2)c1` [Example 1], the IC50 on Human plasma kallikrein amounted to 3.86 nM. Same read-out and setting: with `Cc1cnn(Cc2ccc(Cc3cncc(C(=O)NCc4cnc5[nH]ccc5c4)c3)cc2)c1` [Example 2, 5-({4-[(4-Methylpyrazol-1-yl)methyl]phenyl}methyl)-N-{7H-pyrrolo[2,3-b]pyridin-5-ylmethyl}pyridine-3-carboxamide] the figure was 216 nM; with `Cc1cnn(Cc2ccc(Cc3ccnc(C(=O)NCc4cnc5[nH]ccc5c4)c3)cc2)c1` [Example 4, 4-({4-[(4-Methylpyrazol-1-yl)methyl]phenyl}methyl)-N-{7H-pyrrolo[2,3-b]pyridin-5-ylmethyl}pyridine-2-carboxamide], 6610 nM.

For the molecule `O=C(NCc1cnc2[nH]ccc2c1)c1ccc(=O)n(Cc2ccc(Cn3ccccc3=O)cc2)c1` [Example 6, 6-Oxo-1-({4-[(2-oxopyridin-1-yl)methyl]phenyl}methyl)-N-{7H-pyrrolo[2,3-b]pyridin-5-ylmethyl}pyridine-3-carboxamide], the IC50 came out at 580 nM at Human plasma kallikrein and 27.8 µM on Human KLK1.

The values are drawn from patent publication US11242333B2, “Inhibitors of plasma kallikrein” (Kalvista Pharmaceuticals Limited, priority 2013, dated 2022).
